Reference: patent publication US20230120564A1, “PYRIDO[3,4-D]PYRIMIDINE DERIVATIVE AND THERAPEUTIC PHARMACEUTIC COMPOSITION COMPRISING SAME” (KOREA INSTITUTE OF SCIENCE AND TECHNOLOGY, priority 2020, published 2023)

Assays:
GCK/MAP4K2 = GCK/MAP4K2 (Homo sapiens, UniProt Q12851); assay: full kinase panel biochemical assay; conditions: single concentration of 1 μM; read-out: percent inhibition of GCK/MAP4K2
Summary of the method: (§1)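 Values are % inhibition measured in a biochemical full kinase panel. Compound was tested at one concentration only, 1 μM, and residual activity (%) was derived per kinase.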

TXK = TXK (Homo sapiens, UniProt P42681); assay: full kinase panel biochemical assay; conditions: single concentration of 1 μM; read-out: percent inhibition of TXK
Summary of the method: as §1

BMX/ETK = BMX/ETK (Homo sapiens, UniProt P51813); assay: full kinase panel biochemical assay; conditions: single concentration of 1 μM; read-out: percent inhibition of BMX/ETK
Summary of the method: as §1

FGR = FGR (Homo sapiens, UniProt P09769); assay: full kinase panel biochemical assay; conditions: single concentration of 1 μM; read-out: percent inhibition of FGR
Summary of the method: as §1

FMS = FMS (Homo sapiens, UniProt P07333); assay: full kinase panel biochemical assay; conditions: single concentration of 1 μM; read-out: percent inhibition of FMS
Summary of the method: as §1

BRK = BRK (Homo sapiens, UniProt Q13882); assay: full kinase panel biochemical assay; conditions: single concentration of 1 μM; read-out: percent inhibition of BRK
Summary of the method: as §1

MLK4 = MLK4 (Homo sapiens, UniProt Q5TCX8); assay: full kinase panel biochemical assay; conditions: single concentration of 1 μM; read-out: percent inhibition of MLK4
Summary of the method: as §1

MEKK1 = MEKK1 (Homo sapiens, UniProt Q13233); assay: full kinase panel biochemical assay; conditions: single concentration of 1 μM; read-out: percent inhibition of MEKK1
Summary of the method: as §1

OCI-AML3 (N-Ras Q61L) = assay: Inhibition of cell proliferation (GI50); format: cell-based; conditions: Homo sapiens, OCI-AML-3; OCI-AML3 cell line; read-out: Proliferation inhibitory activity (GI50, μM) OCI-AML3 (N-Ras Q61L)
Protocol: (§2) The inhibitory activities of the compounds of the present invention against the proliferation of the mt-NRAS (G12D) Ba/F3 and […] (mt-NRAS) cell lines were measured and the GI50 values thereof were calculated.
Referring to the results in Table 2, it can be seen that the compound of the present invention has inhibitory activity against the proliferation of the human acute myeloid leukemia cell line (OCI-AML3) having the NRAS mutant gene, and the effect thereof is remarkable. Therefore, it can be seen that the compound of the present invention is particularly effective as a therapeutic agent for acute myeloid leukemia (AML).

Ba/F3 (parental) = assay: Inhibition of cell proliferation (GI50); format: cell-based; conditions: Mus musculus, BaF3; Ba/F3 (parental) cell line; read-out: Proliferation inhibitory activity (GI50, μM) Ba/F3 (parental)
Protocol: The inhibitory activities of the compounds of the present invention against the proliferation of the Ba/F3 (parental) cell line were measured and the GI50 values thereof were calculated.

Ba/F3 (N-Ras G12D) = assay: Inhibition of cell proliferation (GI50); format: cell-based; conditions: Mus musculus, BaF3; mt-NRAS (G12D) Ba/F3 cell line; read-out: Proliferation inhibitory activity (GI50, μM) Ba/F3 (N-Ras G12D)
Protocol: as §2

MEKK1, sequence (Q13233 whole entry): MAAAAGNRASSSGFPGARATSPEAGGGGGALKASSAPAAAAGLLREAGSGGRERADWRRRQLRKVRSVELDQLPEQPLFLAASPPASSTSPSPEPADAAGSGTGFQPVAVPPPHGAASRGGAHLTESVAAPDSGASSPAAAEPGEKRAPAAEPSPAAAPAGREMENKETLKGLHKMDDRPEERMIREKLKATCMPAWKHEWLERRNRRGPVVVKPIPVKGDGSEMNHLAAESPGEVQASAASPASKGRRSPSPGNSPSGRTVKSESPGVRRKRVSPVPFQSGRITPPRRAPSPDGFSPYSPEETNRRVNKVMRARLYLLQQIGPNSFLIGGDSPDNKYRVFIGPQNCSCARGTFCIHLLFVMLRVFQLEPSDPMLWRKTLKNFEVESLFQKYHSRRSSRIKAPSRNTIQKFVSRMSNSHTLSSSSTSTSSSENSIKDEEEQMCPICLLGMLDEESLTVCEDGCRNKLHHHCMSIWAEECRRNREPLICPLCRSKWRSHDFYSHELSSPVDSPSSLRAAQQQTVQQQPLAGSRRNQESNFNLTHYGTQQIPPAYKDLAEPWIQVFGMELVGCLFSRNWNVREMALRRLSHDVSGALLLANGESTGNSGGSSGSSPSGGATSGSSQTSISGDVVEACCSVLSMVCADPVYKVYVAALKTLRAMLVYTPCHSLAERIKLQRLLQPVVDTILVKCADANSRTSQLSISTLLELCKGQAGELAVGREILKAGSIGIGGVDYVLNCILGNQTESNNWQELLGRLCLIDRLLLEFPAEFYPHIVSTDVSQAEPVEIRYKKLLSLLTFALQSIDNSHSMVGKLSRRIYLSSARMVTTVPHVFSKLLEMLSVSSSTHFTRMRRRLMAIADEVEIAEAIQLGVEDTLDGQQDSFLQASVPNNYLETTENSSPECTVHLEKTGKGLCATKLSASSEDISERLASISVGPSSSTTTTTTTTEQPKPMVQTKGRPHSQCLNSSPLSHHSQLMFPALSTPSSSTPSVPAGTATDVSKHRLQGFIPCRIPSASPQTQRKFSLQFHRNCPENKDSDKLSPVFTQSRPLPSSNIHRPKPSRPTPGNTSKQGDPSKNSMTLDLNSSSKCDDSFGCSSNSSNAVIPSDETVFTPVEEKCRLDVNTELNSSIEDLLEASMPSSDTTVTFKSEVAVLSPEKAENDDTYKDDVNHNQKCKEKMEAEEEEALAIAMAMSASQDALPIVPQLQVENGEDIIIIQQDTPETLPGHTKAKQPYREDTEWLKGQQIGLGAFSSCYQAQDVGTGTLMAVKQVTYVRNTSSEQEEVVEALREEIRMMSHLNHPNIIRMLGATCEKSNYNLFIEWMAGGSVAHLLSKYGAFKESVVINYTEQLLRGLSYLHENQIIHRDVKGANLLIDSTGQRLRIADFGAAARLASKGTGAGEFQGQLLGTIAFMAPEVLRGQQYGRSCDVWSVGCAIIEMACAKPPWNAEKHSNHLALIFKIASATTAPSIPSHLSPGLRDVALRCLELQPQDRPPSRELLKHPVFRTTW
FGR, sequence (P09769 whole entry): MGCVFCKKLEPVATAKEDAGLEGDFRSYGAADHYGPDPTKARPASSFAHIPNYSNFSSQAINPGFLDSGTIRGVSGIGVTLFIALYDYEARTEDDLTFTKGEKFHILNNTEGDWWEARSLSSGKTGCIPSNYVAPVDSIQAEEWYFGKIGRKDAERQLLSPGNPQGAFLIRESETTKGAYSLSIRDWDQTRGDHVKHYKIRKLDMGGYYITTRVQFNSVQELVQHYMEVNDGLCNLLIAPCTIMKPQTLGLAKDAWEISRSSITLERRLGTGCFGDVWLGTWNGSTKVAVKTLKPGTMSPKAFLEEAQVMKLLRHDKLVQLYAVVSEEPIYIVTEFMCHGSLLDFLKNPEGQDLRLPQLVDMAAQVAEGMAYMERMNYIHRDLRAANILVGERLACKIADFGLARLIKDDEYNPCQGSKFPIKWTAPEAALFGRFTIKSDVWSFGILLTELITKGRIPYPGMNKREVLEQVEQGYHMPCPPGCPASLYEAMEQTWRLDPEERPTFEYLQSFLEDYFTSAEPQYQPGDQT
GCK/MAP4K2, sequence (Q12851 whole entry): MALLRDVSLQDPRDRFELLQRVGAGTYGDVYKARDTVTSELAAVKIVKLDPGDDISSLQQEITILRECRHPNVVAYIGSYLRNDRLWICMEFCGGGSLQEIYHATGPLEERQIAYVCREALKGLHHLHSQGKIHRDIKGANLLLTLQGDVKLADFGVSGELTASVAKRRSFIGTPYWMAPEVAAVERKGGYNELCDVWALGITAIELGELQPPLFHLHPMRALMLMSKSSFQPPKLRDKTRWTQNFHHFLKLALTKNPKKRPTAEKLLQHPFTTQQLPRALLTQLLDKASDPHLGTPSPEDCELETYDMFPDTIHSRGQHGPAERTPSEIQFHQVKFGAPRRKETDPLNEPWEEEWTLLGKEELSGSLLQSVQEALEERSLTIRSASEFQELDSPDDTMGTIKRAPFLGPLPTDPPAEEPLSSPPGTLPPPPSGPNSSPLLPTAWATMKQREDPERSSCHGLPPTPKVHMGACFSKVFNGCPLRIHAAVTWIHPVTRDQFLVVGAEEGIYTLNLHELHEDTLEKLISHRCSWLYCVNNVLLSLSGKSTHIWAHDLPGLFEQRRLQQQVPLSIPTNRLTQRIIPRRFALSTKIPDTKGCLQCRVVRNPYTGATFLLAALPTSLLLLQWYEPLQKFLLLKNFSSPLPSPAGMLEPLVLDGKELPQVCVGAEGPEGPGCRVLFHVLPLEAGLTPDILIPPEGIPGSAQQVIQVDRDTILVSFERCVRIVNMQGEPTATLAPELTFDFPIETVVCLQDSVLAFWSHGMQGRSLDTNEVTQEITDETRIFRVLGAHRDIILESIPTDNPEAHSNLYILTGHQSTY
TXK, sequence (P42681 whole entry): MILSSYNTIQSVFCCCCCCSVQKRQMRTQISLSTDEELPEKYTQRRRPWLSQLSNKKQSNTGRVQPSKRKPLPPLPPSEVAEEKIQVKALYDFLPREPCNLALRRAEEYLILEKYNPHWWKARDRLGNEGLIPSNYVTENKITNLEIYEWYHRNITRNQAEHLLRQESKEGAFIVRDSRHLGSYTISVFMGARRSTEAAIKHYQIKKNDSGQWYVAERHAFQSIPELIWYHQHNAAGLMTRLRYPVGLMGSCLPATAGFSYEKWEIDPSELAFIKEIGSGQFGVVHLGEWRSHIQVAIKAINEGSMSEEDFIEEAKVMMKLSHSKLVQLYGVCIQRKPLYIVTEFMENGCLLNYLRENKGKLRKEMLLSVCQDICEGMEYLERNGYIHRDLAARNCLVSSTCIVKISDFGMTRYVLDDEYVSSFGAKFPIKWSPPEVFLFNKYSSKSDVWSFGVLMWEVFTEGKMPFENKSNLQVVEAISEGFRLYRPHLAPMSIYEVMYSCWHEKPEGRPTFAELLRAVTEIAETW
BMX/ETK, sequence (P51813 whole entry): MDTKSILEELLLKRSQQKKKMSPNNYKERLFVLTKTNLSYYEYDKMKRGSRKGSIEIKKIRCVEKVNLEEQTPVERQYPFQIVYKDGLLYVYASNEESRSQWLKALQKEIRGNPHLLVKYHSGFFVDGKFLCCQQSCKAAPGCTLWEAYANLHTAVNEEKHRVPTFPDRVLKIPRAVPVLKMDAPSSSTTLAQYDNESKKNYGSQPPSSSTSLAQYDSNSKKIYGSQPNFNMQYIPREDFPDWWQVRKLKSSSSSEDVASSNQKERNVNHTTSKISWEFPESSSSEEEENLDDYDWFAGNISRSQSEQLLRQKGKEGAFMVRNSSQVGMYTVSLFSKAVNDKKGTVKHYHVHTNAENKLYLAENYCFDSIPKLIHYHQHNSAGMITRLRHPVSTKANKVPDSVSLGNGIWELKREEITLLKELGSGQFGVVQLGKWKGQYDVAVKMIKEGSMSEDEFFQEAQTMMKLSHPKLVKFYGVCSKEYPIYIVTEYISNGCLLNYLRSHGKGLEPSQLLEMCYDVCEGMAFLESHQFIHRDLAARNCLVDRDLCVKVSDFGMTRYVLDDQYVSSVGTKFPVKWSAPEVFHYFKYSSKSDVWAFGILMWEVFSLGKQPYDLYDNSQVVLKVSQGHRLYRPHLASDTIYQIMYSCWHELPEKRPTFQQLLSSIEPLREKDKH
FMS, sequence (P07333 20-972): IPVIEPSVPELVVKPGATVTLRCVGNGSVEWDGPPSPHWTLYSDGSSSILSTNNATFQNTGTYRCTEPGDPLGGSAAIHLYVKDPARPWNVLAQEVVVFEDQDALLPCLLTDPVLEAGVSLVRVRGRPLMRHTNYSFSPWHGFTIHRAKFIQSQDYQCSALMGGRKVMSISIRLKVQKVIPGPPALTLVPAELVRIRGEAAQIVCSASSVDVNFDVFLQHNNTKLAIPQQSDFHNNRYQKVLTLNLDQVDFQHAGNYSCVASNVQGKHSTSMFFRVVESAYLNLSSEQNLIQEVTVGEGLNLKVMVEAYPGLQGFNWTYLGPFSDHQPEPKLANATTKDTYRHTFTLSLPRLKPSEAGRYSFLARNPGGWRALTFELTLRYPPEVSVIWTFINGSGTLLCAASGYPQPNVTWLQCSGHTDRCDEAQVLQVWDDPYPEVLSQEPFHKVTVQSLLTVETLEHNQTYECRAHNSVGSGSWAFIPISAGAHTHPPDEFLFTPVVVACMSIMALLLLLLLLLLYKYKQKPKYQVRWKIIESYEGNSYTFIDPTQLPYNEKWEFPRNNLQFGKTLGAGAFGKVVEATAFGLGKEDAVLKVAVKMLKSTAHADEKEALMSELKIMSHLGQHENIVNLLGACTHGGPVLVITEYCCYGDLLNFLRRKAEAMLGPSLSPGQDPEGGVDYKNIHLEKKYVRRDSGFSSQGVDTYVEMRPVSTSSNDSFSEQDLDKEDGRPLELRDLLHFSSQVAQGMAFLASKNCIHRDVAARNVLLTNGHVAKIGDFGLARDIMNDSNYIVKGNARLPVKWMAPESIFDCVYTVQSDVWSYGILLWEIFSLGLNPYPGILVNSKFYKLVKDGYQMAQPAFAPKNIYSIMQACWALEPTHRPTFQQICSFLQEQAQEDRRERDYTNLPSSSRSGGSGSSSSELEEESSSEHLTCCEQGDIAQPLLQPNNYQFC

Cc1ccc(Nc2ncc3cc(-c4cc(NC(=O)c5cccc(C(F)(F)F)c5)ccc4C)ncc3n2)cn1 [Compound No. 4, N-(4-methyl-3-(2-((6-methylpyridin-3-yl)amino)pyrido[3,4-d]pyrimidin-6-yl)phenyl)-3-(trifluoromethyl)benzamide]
inhibition at 1 µM (GCK/MAP4K2): ≥ 70% | inhibition at 1 µM (TXK): ≥ 70% | inhibition at 1 µM (BMX/ETK): ≥ 70% | inhibition at 1 µM (FGR): ≥ 70% | inhibition at 1 µM (FMS): ≥ 70% | inhibition at 1 µM (BRK): ≥ 70% | inhibition at 1 µM (MLK4): ≥ 70% | inhibition at 1 µM (MEKK1): ≥ 70% | GI50 (OCI-AML3 (N-Ras Q61L)): < 0.5 µM | GI50 (Ba/F3 (parental)): < 0.5 µM | GI50 (Ba/F3 (N-Ras G12D)): < 0.5 µM
